Patent US9499464B2, “Opsin-binding ligands, compositions and methods of use” (priority 2011, dated 2016)

Tests used:
P23H opsin = assay: Rhodopsin purification and regeneration (P23H cells treated with compound, regenerated with 9-cis-retinal, 480-500 nm absorbance); details: for Fold Increase Over Control (480-500 nm absorbance as fold increase over the DMSO control): P23H cells, 48 hours, regeneration with 9-cis-retinal (20 μM)

Row | SMILES | Fold Increase Over Control (480-500 nm absorbance as fold increase over the DMSO control) (P23H opsin; compound concentration 20 μM) [fold] | Fold Increase Over Control (480-500 nm absorbance as fold increase over the DMSO control) (P23H opsin; compound concentration 10 μM) [fold] | other results
1 | CC1=C(C)[C@H]2[C@H](CCCC2(C)C)C1=O (racemic) [Compound 64, (±)-(3aS,7aS)-2,3,4,4-tetramethyl-3a,4,5,6,7,7a-hexahydro-1H-inden-1-one] | 2.1 | – | –
2 | CC1=C(C)[C@]2(C)CCCC(C)(C)[C@@H]2C1=O (racemic) [Compound 65, (±)-(3aR,7aS)-2,3,3a,7,7-pentamethyl-3a,4,5,6,7,7a-hexahydro-1H-inden-1-one] | 1.8 | – | –
3 | CC1=C(C)[C@]2(C)CCCC(C)(C)[C@@H]2[C@H]1O (racemic) [Compound 66, (±)-(1R,3aR,7aS)-2,3,3a,7,7-pentamethyl-3a,4,5,6,7,7a-hexahydro 1H inden-1-ol] | 1.9 | – | –
4 | C[C@H]1C(=O)C=C2[C@H]1CCCC2(C)C (racemic) [Compound 67, (±)-(1R,7aS)-1,4,4-trimethyl-5,6,7,7a-tetrahydro-1H-inden-2(4H)-one] | 1.8 | – | –
5 | C[C@@H]1CC(=O)C2=CCCC(C)(C)[C@H]21 (racemic) [Compound 71, (±)-(3R,3aR)-3,4,4-trimethyl-2,3,3a,4,5,6-hexahydro-1H-inden-1-one] | 2.2 | – | –
6 | CC1=C(C)[C@H]2[C@H](CCCC2(C)C)[C@@H]1O (racemic) [Compound 72, (±)-(1S,3aS,7aS)-2,3,4,4-tetramethyl-3a,4,5,6,7,7a-hexahydro-1H-inden-1-ol] | 1.9 | – | –
7 | CC1(C)CCC(C)(C)C2CC(=O)C=C21 (single isomer, unassigned) [Compound 69b, (−)-4,4,7,7-tetramethyl-5,6,7,7a-tetrahydro-1H-inden-2(4H)-one] | 1.8 | – | –
8 | CN1CC2=C(C1=O)C(C)(C)CCC2 [Compound 13, 2,7,7-trimethyl-2,3,4,5,6,7-hexahydro-1H-isoindol-1-one] | 2.2 | – | –
9 | CC1(C)CCCC2=CC(=O)CC21 (centres unmarked) [Compound 27, 7,7-dimethyl-5,6,7,7a-tetrahydro-1H-inden-2(4H)-one] | – | 2.0 | –
10 | CC1(C)CCCC2(C)CC(=NO)C=C12 (centres unmarked) [Compound 30, 4,4,7a-trimethyl-5,6,7,7a-tetrahydro-1H-inden-2(4H)-one oxime] | – | 1.8 | –
11 | CON=C1C=C2C(C)(C)CCCC2(C)C1 (centres unmarked) [Compound 31, 4,4,7a-trimethyl-5,6,7,7a-tetrahydro-1H-inden-2(4H)-one O-methyl oxime] | – | 1.6 | –
12 | CC1(C)CCC(C)(C)C2CC(=O)C=C21 (centres unmarked) [Compound 41, 4,4,7,7-tetramethyl-5,6,7,7a-tetrahydro-1H-inden-2(4H)-one] | – | 1.9 | –
13 | CC1(C)CCCC2CC(=O)C=C21 (centres unmarked) [Compound 53, 4,4-dimethyl-5,6,7,7a-tetrahydro-1H-inden-2(4H)-one] | – | 1.7 | –
14 | CC1(C)CCCC2CC(=NO)CC21 (centres unmarked) [Compound 55, 4,4-dimethylhexahydro-1H-inden-2(3H)-one oxime] | – | 2.8 | –
15 | CC1(C)CCCC2=C1CCC2=O [Compound 56, 4,4-dimethyl-2,3,4,5,6,7-hexahydro-1H-inden-1-one] | – | 1.7 | –
16 | CC1(C)CCC(C)(C)[C@H]2CC(=O)C=C21 [Compound 69a, (+)-4,4,7,7-tetramethyl-5,6,7,7a-tetrahydro-1H-inden-2(4H)-one] | 2.0 | – | melting point: 35 to 38 °C
17 | CC1(C)CCC(C)(C)[C@H]2CC(=O)C[C@H]21 [Compound 70, (3aR,7aS) and (3aS,7aR)-4,4,7,7-tetramethylhexahydro-1H-inden-2(3H)-one] | 1.9 | – | –
18 | CC(=O)/C=C/C1=C(C)CCCC1(C)C [β-ionone, reference compound] | 2.4 | – | regeneration of 500 nm absorbing pigment upon treatment with retinal (P23H opsin; FIG. 1, P23H opsin treated with 20 µM during mutant protein production, relative to vehicle (DMSO) alone): increase
